# Entries after “also recorded” stand apart in the source; their conditions may differ.
# Tests used:
# [1] = target: T1, porcine intestinal vitamin D receptor (Sus scrofa, UniProt A3RGC1); assay: Competitive binding of [3H]-1,25-(OH)2-D3 to the porcine intestinal vitamin D receptor; settings: FIG. 1, standard 1,25-(OH)2D3
# T1 construct: from tissue; host or cells: pig intestine (nuclear receptor preparation)
# T1 sequence (A3RGC1 1-427): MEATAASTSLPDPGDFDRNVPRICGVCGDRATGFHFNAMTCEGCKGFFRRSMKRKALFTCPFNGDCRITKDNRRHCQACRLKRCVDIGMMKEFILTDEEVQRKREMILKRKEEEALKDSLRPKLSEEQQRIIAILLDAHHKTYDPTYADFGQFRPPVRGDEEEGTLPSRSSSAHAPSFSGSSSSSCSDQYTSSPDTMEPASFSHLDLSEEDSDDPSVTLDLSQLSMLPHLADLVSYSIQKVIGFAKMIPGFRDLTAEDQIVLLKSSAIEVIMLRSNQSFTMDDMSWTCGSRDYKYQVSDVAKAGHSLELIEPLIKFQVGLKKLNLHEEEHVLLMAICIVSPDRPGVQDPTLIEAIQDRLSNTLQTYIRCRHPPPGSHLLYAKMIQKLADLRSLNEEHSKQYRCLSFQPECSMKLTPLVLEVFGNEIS
# Method: FIG. 1 is a graph illustrating the relative activity of 2-methylene-19-nor-20(S)-1α,25-dihydroxyvitamin D3, 2-methylene-19-nor-1α,25-dihydroxyvitamin D3 and 1α,25-dihydroxyvitamin D3 to compete for binding of [^3H]-1,25-(OH)2-D3 to the vitamin D pig intestinal nuclear receptor;
# Competitive binding of the analogs to the porcine intestinal receptor was carried out by the method described by Dame et al (Biochemistry 25, 4523–4534, 1986).
# [2] = tested on: intestinal calcium transport; assay: Intestinal calcium transport activity; format: in vivo; settings: FIG. 2
# Source text: FIG. 2 is a graph illustrating the intestinal calcium transport activity of 2-methylene-19-nor-20(S)-1α,25-dihydroxyvitamin D3 as compared to 1α,25-dihydroxyvitamin D3;
# The in vivo tests of increasing serum calcium of rats on a zero calcium diet provides an insight to […] or bone activity of 2MD.
# [3] = tested on: ovariectomized old female rats; assay: Strength of femurs and vertebrae to mechanical stress (animals of Table 1); format: in vivo; settings: for Stress Value Femur / Stress Value Vertebra: ovariectomized rats
# Rhesus monkeys = assay: Single oral dose in Rhesus monkeys, serum calcium; format: in vivo; settings: single oral dose of 27 μg; 10 Kg Rhesus monkey; preliminary
# Source text: FIGS. 7 and 8 snow a six week toxicity study in rats showing that 2MD appears safe at up to 30 pmol/day.
# These and other tests indicate that primates will tolerate 2MD extremely well which may give a very large window between efficacy and the danger of hypercalcemia in man.
# [4] = tested on: ovariectomized old female rats; assay: Treatment of ovariectomized old female rats (bone mass, serum calcium, femur ash); settings: for BMC / BMC/Body Wt. / BMD / Body Wt. / Femur Ash / Femur Ash (%) / Serum CA: ovariectomized rats, mean ± SEM
structure (smiles),measurement,setting,value
"C=C1[C@H](O)CC(=C/C=C2\CCC[C@]3(C)[C@@H]([C@@H](C)CCCC(C)(C)O)CC[C@@H]23)C[C@H]1O [2MD, 2-methylene-19-nor-20(S)-1α,25-dihydroxyvitamin D3]","binding to the vitamin D receptor compared to 1,25-(OH)2D3",[1],"about as active as 1,25(OH)2D3"
same,"binding to the vitamin D receptor compared to 1,25-(OH)2D3","[1]; listed as 2-methylene-20(S)-19-nor-1,25-(OH)2D3",bound equally well
same,"activity in stimulating intestinal calcium transport compared to 1,25(OH)2D3",[2],"activity similar to that of 1,25-dihydroxyvitamin D3; also recorded: approximately equal that of 1,25-(OH)2D3"
same,breaking strength in the femurs (cortical strength),[3]; animals shown in Table 1,increases breaking strength in the femurs
same,crushing strength in the vertebra (trabecular strength),[3]; animals shown in Table 1,increases
same,Stress Value Femur,[3]; 32 pmol/d/2X/Week,134.84 ± 14.12
same,Stress Value Vertebra,[3]; 32 pmol/d/2X/Week,23.93 ± 6.59
same,Stress Value Femur,[3]; 65 pmol/d/1X/Week,133.71 ± 14.06
same,Stress Value Vertebra,[3]; 65 pmol/d/1X/Week,17.07 ± 5.73
same,elevation of serum calcium concentration,Rhesus monkeys,does not cause significant elevation of serum calcium concentration; also recorded: without appreciably elevating serum calcium concentration
same,"restoring bone of ovariectomized, old female rats","[4]; 32 pmol given 2 times per week, compared to 1,25(OH)2D3 at high doses 3 times per week",very effective in restoring bone
same,building bone mass in ovariectomized rats,"[4]; compared to the native hormone / sham-operated controls, FIGS. 4 and 6",extraordinarily effective in building bone mass; also recorded: causes an increase in bone mass above that of sham-operated controls
same,serum calcium concentration in ovariectomized rats,[4]; dosage levels used in the bone mass study,without increasing serum calcium concentration; also recorded: no change in serum calcium
same,% ash in the femur,[4]; ovariectomized old female rats,increases % ash in the femur; also recorded: percent ash is unexpectedly increased further
same,BMC,"[4]; 32 pmol/d 2X/Week, 8 weeks",8.4 ± 0.13 g
same,BMC/Body Wt.,"[4]; 32 pmol/d 2X/Week, 8 weeks",22.4 ± 0.64 mg/g
same,BMD,"[4]; 32 pmol/d 2X/Week, 8 weeks",0.295 ± 0.009 g/cm^2
same,Body Wt.,"[4]; 32 pmol/d 2X/Week, 8 weeks",375 ± 8.2 g
same,BMC,"[4]; 32 pmol/d 2X/Week, 17 weeks",9.7 ± 0.19 g
same,BMC/Body Wt.,"[4]; 32 pmol/d 2X/Week, 17 weeks",26.2 ± 0.92 mg/g
same,BMD,"[4]; 32 pmol/d 2X/Week, 17 weeks",0.313 ± 0.011 g/cm^2
same,Body Wt.,"[4]; 32 pmol/d 2X/Week, 17 weeks",373 ± 11.0 g
same,BMC,"[4]; 32 pmol/d 2X/Week, 30 weeks",11.6 ± 0.40 g
same,BMC/Body Wt.,"[4]; 32 pmol/d 2X/Week, 30 weeks",33.4 ± 1.60 mg/g
same,BMD,"[4]; 32 pmol/d 2X/Week, 30 weeks",0.331 ± 0.006 g/cm^2
same,Body Wt.,"[4]; 32 pmol/d 2X/Week, 30 weeks",346 ± 11.0 g
same,Femur Ash,"[4]; 32 pmol/d 2X/Week, 30 weeks",462 ± 21.4 mg
same,Femur Ash (%),"[4]; 32 pmol/d 2X/Week, 30 weeks",65.6 ± 1.7%
same,Serum CA,"[4]; 32 pmol/d 2X/Week, 30 weeks",10.8 ± 0.22 mg/dL
same,BMC,"[4]; 65 pmol/d 1X/Week, 8 weeks",8.5 ± 0.23 g
same,BMC/Body Wt.,"[4]; 65 pmol/d 1X/Week, 8 weeks",22.2 ± 0.53 mg/g
same,BMD,"[4]; 65 pmol/d 1X/Week, 8 weeks",0.293 ± 0.004 g/cm^2
same,Body Wt.,"[4]; 65 pmol/d 1X/Week, 8 weeks",408 ± 10.5 g
same,BMC,"[4]; 65 pmol/d 1X/Week, 17 weeks",9.6 ± 0.24 g
same,BMC/Body Wt.,"[4]; 65 pmol/d 1X/Week, 17 weeks",24.0 ± 0.80 mg/g
same,BMD,"[4]; 65 pmol/d 1X/Week, 17 weeks",0.312 ± 0.005 g/cm^2
same,Body Wt.,"[4]; 65 pmol/d 1X/Week, 17 weeks",402 ± 11.3 g
same,BMC,"[4]; 65 pmol/d 1X/Week, 30 weeks",10.2 ± 0.33 g
same,BMC/Body Wt.,"[4]; 65 pmol/d 1X/Week, 30 weeks",26.0 ± 1.10 mg/g
same,BMD,"[4]; 65 pmol/d 1X/Week, 30 weeks",0.310 ± 0.009 g/cm^2
same,Body Wt.,"[4]; 65 pmol/d 1X/Week, 30 weeks",393 ± 15.0 g
same,Femur Ash,"[4]; 65 pmol/d 1X/Week, 30 weeks",443 ± 11.6 mg
same,Femur Ash (%),"[4]; 65 pmol/d 1X/Week, 30 weeks",62.5 ± 0.57%
same,Serum CA,"[4]; 65 pmol/d 1X/Week, 30 weeks",10.7 ± 0.46 mg/dL
"C=C1/C(=C\C=C2/CCC[C@]3(C)[C@@H]([C@H](C)CCCC(C)(C)O)CC[C@@H]23)C[C@@H](O)C[C@@H]1O [1,25(OH)2D3, 1α,25-dihydroxyvitamin D3]",Stress Value Femur,[3]; 250 pmol/day/5X/Week,118.21 ± 19.85
same,Stress Value Vertebra,[3]; 250 pmol/day/5X/Week,19.24 ± 5.66
same,Stress Value Femur,[3]; 500 pmol/d/3-5X/Week,116.47 ± 16.20
same,Stress Value Vertebra,[3]; 500 pmol/d/3-5X/Week,17.14 ± 0.52
same,BMC,"[4]; 250 pmol/d 5X/Week, 8 weeks",8.90 ± 0.40 g
same,BMC/Body Wt.,"[4]; 250 pmol/d 5X/Week, 8 weeks",22.4 ± 0.48 mg/g
same,BMD,"[4]; 250 pmol/d 5X/Week, 8 weeks",0.297 ± 0.001 g/cm^2
same,BMC,"[4]; 250 pmol/d 5X/Week, 17 weeks",9.6 ± 0.39 g
same,BMC/Body Wt.,"[4]; 250 pmol/d 5X/Week, 17 weeks",24.5 ± 0.87 mg/g
same,BMD,"[4]; 250 pmol/d 5X/Week, 17 weeks",0.308 ± 0.008 g/cm^2
same,BMC,"[4]; 250 pmol/d 5X/Week, 30 weeks",10.1 ± 0.30 g
same,BMC/Body Wt.,"[4]; 250 pmol/d 5X/Week, 30 weeks",26.1 ± 0.97 mg/g
same,BMD,"[4]; 250 pmol/d 5X/Week, 30 weeks",0.310 ± 0.007 g/cm^2
same,Femur Ash,"[4]; 250 pmol/d 5X/Week, 30 weeks",417 ± 23 mg
same,Femur Ash (%),"[4]; 250 pmol/d 5X/Week, 30 weeks",60.8 ± 1.1%
same,BMC,"[4]; 500 pmol/d 3X/Week, 17 weeks",11.5 ± 0.25 g
same,BMC/Body Wt.,"[4]; 500 pmol/d 3X/Week, 17 weeks",27.6 ± 0.68 mg/g
same,BMD,"[4]; 500 pmol/d 3X/Week, 17 weeks",0.331 ± 0.008 g/cm^2
same,BMC,"[4]; 500 pmol/d 3X/Week, 30 weeks",11.8 ± 0.23 g
same,BMC/Body Wt.,"[4]; 500 pmol/d 3X/Week, 30 weeks",28.0 ± 0.69 mg/g
same,BMD,"[4]; 500 pmol/d 3X/Week, 30 weeks",0.328 ± 0.008 g/cm^2
same,Femur Ash,"[4]; 500 pmol/d 3X/Week, 30 weeks",478 ± 7.5 mg
same,Femur Ash (%),"[4]; 500 pmol/d 3X/Week, 30 weeks",61.4 ± 1.3%
same,BMC,"[4]; 500 pmol/d 5X/Week, 8 weeks",10.2 ± 0.40 g
same,BMC/Body Wt.,"[4]; 500 pmol/d 5X/Week, 8 weeks",26.3 ± 0.57 mg/g
same,BMD,"[4]; 500 pmol/d 5X/Week, 8 weeks",0.312 ± 0.005 g/cm^2

# Reference: patent US7115594B2, “Use of 2-methylene-19-nor-20(S)-1α,25-dihydroxyvitamin D3 to increase bone strength” (Wisconsin Alumni Research Foundation, priority 2000, dated 2006)
